Article PMC8844075 (Nature Communications, 2022)
Read-outs that look alike come from different tables or passages of the source.

Legend:
[1] = system: Gi1 heterotrimer with NPY-bound Y1R; assay: GTP turnover assay; assay type: biochemical, human
Experimental: GTP turnover assay was performed using GTPase-Glo assay kit (Promega)[22]. […] NPY-bound Y1R (4 μM) was mixed with 1 μM Gi1 heterotrimer (containing Gαi produced from E. coli or Sf9 cells) in an assay buffer consisting of 20 mM HEPES pH 8.0, 150 mM NaCl, 0.03% DDM, 0.003% CHS, 100 μM TCEP, 5 μM GDP, and 2.5 μM GTP. After incubation for 3 h, reconstituted GTPase-Glo reagent was added to the sample and incubated for 30 min at room temperature. Then, detection reagent was mixed and incubated for 10 min at room temperature. Luminescence was measured using a FlexStation 3 multi-mode microplate reader (Molecular Devices) and data were analyzed by GraphPad Prism 9.2.0.

wild-type Y1R / Gi1 = assay: BRET Gi1 recruitment assay, wild-type Y1R; assay type: cell-based, human; settings: result in words
Experimental: Forty-eight hours of post-transfection, cells were detached with PBS supplemented with 20 mM EDTA and evenly spread into white 96-well microplates (SPL). […] All BRET data were collected using a Mithras LB940 instrument (Berthold), and graphs were plotted using GraphPad Prism 9.2.0.
each sample represent the mean and S.E.M. (standard error of mean) of n=six independent experiments, respectively. Each circle represents an individual data point from the experiment.

Y1R = settings: cited from earlier work
[2] = alanine mutants of NPY, ref [10],[26]

In the case of “Gi1 (Sf9): purified Gi1 heterotrimer containing Gαi1 produced from Sf9 insect cells”, the “reduced luminescence signal (GTP hydrolytic activity)” value ([1]; GTPase-Glo, 1 μM Gi1, 4 μM NPY-bound Y1R, 3 h, three independent experiments) is reported as 95.1%.
Gi (sf9) showed a GTP turnover ([1]; 1st, Buffer 7216.3) of 2592.3, a GTP turnover ([1]; 2nd, Buffer 7401.3) of 2856.7 and a GTP turnover ([1]; 3rd, Buffer 7365.4) of 2743.4.
With “NPY-COOH: carboxyl-NPY (NPY-COOH), non-amidated NPY” the Gi1 recruitment (wild-type Y1R / Gi1) was “does not induce recruitment of Gi1”.
For R33A: R33A mutation of NPY, the Y1R binding (Y1R; [2]) is given as “most severe defects in Y1R binding”.
For R35A: R35A mutation of NPY, the Y1R binding (Y1R; [2]) is given as “most severe defects in Y1R binding”.
Substance Y1R has a GTP turnover ([1]; 1st, Buffer 7216.3) of 7542.9, a GTP turnover ([1]; 2nd, Buffer 7401.3) of 7352.2 and a GTP turnover ([1]; 3rd, Buffer 7365.4) of 7960.2.
In the case of Y36A: Y36A mutation of NPY, the Y1R binding (Y1R; [2]) is listed as “loss of binding to Y1R”.
In the case of Y36F: Y36F mutation of NPY, the Y1R binding (Y1R; NPY mutant, ref [26]) is given as “relatively mild effect on Y1R binding”.
